Measured values from PMC10112504, “Novel 4-thiophenyl-pyrazole, pyridine, and pyrimidine derivatives as potential antitumor candidates targeting both EGFR and VEGFR-2; design, synthesis, biological evaluations, and in silico studies” (RSC Advances, 2023).

Key:
MCF-7 = assay: Anti-proliferative activity, SRB colorimetric assay; type: cell-based; conditions: for IC50: Homo sapiens, MCF7, MCF-7 cancer cell line, SRB assay, read-out: Cell lines (IC50 μM) MCF-7; for anti-proliferative activity against MCF-7, in words: authors' grading of Table 1 values, key not given
A. flavus = assay: Antifungal activity, inhibition zone approach; type: cell-based, Aspergillus flavus; conditions: for A. flavus Diameter of inhibition zone (mm): Fungi; for antimicrobial activity with A. flavus, in words: authors' grading of Table 2 values, key not given; for A. flavus % Activity index: ketoconazole = 100
S. aureus = assay: Antibacterial activity, inhibition zone approach; type: cell-based, Staphylococcus aureus; conditions: for S. aureus Diameter of inhibition zone (mm): Gram-positive bacteria; for antimicrobial activity with S. aureus, in words: authors' grading of Table 2 values, key not given; for S. aureus % Activity index: gentamicin = 100
HepG-2 = assay: Anti-proliferative activity, SRB colorimetric assay; type: cell-based; conditions: for IC50: Homo sapiens, HepG2, HepG-2 cancer cell line, SRB assay, read-out: Cell lines (IC50 μM) HepG-2; for anti-proliferative activity against HepG-2, in words: authors' grading of Table 1 values, key not given
C. albicans = assay: Antifungal activity, inhibition zone approach; type: cell-based, Candida albicans; conditions: for C. albicans Diameter of inhibition zone (mm): Fungi; for antimicrobial activity with C. albicans, in words: authors' grading of Table 2 values, key not given; for C. albicans % Activity index: ketoconazole = 100
E. coli = assay: Antibacterial activity, inhibition zone approach; type: cell-based, Escherichia coli; conditions: for E. coli Diameter of inhibition zone (mm): Gram-negative bacteria; for antimicrobial activity with E. coli, in words: authors' grading of Table 2 values, key not given; for E. coli % Activity index: gentamicin = 100
P. aeuroginosa = assay: Antibacterial activity, inhibition zone approach; type: cell-based, Pseudomonas aeuroginosa; conditions: for P. aeuroginosa Diameter of inhibition zone (mm): Gram-negative bacteria; for antimicrobial activity with P. aeuroginosa, in words: authors' grading of Table 2 values, key not given; for P. aeuroginosa % Activity index: gentamicin = 100
B. subtilis = assay: Antibacterial activity, inhibition zone approach; type: cell-based, Bacillus subtilis; conditions: for B. subtilis Diameter of inhibition zone (mm): Gram-positive bacteria; for antimicrobial activity with B. subtilis, in words: authors' grading of Table 2 values, key not given; for B. subtilis % Activity index: gentamicin = 100

| Compound | IC50 (MCF-7) [µM] | anti-proliferative activity against MCF-7, in words (MCF-7) | melting point [°C] | A. flavus Diameter of inhibition zone (mm) (A. flavus) | antimicrobial activity with A. flavus, in words (A. flavus) | A. flavus % Activity index (A. flavus) [%] | S. aureus Diameter of inhibition zone (mm) (S. aureus) | antimicrobial activity with S. aureus, in words (S. aureus) | S. aureus % Activity index (S. aureus) [%] | IC50 (HepG-2) [µM] | anti-proliferative activity against HepG-2, in words (HepG-2) | C. albicans Diameter of inhibition zone (mm) (C. albicans) | antimicrobial activity with C. albicans, in words (C. albicans) | C. albicans % Activity index (C. albicans) [%] | E. coli Diameter of inhibition zone (mm) (E. coli) | E. coli % Activity index (E. coli) [%] | P. aeuroginosa Diameter of inhibition zone (mm) (P. aeuroginosa) | P. aeuroginosa % Activity index (P. aeuroginosa) [%] | B. subtilis Diameter of inhibition zone (mm) (B. subtilis) | B. subtilis % Activity index (B. subtilis) [%] | also measured |
| --- | --- | --- | --- | --- | --- | --- | --- | --- | --- | --- | --- | --- | --- | --- | --- | --- | --- | --- | --- | --- | --- |
| NS(=O)(=O)c1ccc(NC(=O)CN2N=C(c3ccc(O)cc3)CC2c2cccs2)cc1 (centres unmarked) [16a, 2-(3-(4-hydroxyphenyl)-5-(thiophen-2-yl)-4,5-dihydro-1H-pyrazol-1-yl)-N-(4-sulfamoylphenyl)acetamide] | 29.1 ± 2 | moderate | 158 to 160 | 12 | moderate | 46.1 | 8 | moderate | 44.4 | 34.5 ± 2.2 | moderate | 15 | moderate | 53.6 | 7 | 33.3 | 11 | 57.9 | 11 | 50.0 | antimicrobial activity with E. coli, in words (E. coli): weak; antimicrobial activity with P. aeuroginosa, in words (P. aeuroginosa): moderate; antimicrobial activity with B. subtilis, in words (B. subtilis): moderate |
| O=C(O)CSC(=S)N1N=C(c2ccc(O)cc2)CC1c1cccs1 (centres unmarked) [19a, 2-((3-(4-Hydroxyphenyl)-5-(thiophen-2-yl)-4,5-dihydro-1H-pyrazole-1-carbonothioyl)thio)acetic acid] | 14.7 ± 1.2 | strong | 223 to 225 | 13 | moderate | 50.0 | 10 | moderate | 55.5 | 28.2 ± 1.9 | moderate | 16 | moderate | 57.1 | 9 | 42.8 | 12 | 63.1 | 14 | 63.6 | antimicrobial activity with E. coli, in words (E. coli): moderate; antimicrobial activity with P. aeuroginosa, in words (P. aeuroginosa): moderate; antimicrobial activity with B. subtilis, in words (B. subtilis): moderate |
| CCOC(=O)c1c(-c2cccs2)cc(-c2ccc(O)cc2)[nH]c1=O [4a, Ethyl 6-(4-hydroxyphenyl)-2-oxo-4-(thiophen-2-yl)-1,2-dihydropyridine-3-carboxylate] | 41.2 ± 2.4 | moderate | 125 | 11 | – | 42.3 | 6 | – | 33.3 | 44.5 ± 2.6 | moderate | 13 | – | 46.4 | 5 | 23.8 | 8 | 42.1 | 10 | 45.4 | – |
| CC(=O)c1c(-c2cccs2)cc(-c2ccc(O)cc2)[nH]c1=O [3a, 3-Acetyl-6-(4-hydroxyphenyl)-4-(thiophen-2-yl)pyridin-2(1H)-one] | 48.4 ± 2.7 | moderate | 220 | 10 | – | 38.5 | 5 | – | 27.8 | 53.2 ± 3.1 | moderate | 11 | – | 39.3 | 4 | 19.0 | 6 | 31.6 | 9 | 40.9 | – |
| O=C(CCl)SC(=S)N1N=C(c2ccc(O)cc2)CC1c1cccs1 (centres unmarked) [20a, 2-Chloroacetic-3-(4-hydroxyphenyl)-5-(thiophen-2-yl)-4,5-dihydro-1H-pyrazole-1-carbothioic thioanhydride] | 56.2 ± 3.3 | weak | 265 | 7 | weak | 26.9 | 3 | weak | 16.7 | 67.4 ± 3.5 | weak | 9 | weak | 32.1 | – | – | 4 | 21.0 | 6 | 27.3 | antimicrobial activity with E. coli, in words (E. coli): weak; antimicrobial activity with P. aeuroginosa, in words (P. aeuroginosa): weak; antimicrobial activity with B. subtilis, in words (B. subtilis): weak |
| Oc1ccc(-c2cc(-c3cccs3)nc(/N=C/c3ccccc3O)n2)cc1 [13a, (E)-2-(((4-(4-hydroxyphenyl)-6-(thiophen-2-yl)pyrimidin-2-yl)imino)methyl)phenol] | 42.8 ± 2.6 | – | 133 to 135 | 16 | very strong | 61.5 | 14 | very strong | 77.8 | 34.8 ± 2.3 | – | 21 | very strong | 75.0 | 13 | 61.9 | 15 | 78.9 | 18 | 81.8 | antimicrobial activity with E. coli, in words (E. coli): very strong; antimicrobial activity with P. aeuroginosa, in words (P. aeuroginosa): very strong; antimicrobial activity with B. subtilis, in words (B. subtilis): very strong |
| O=C(CNC(=S)n1nc(-c2ccc(Cl)c(Cl)c2)cc1-c1cccs1)c1ccccc1 [12b, 3-(3,4-dichlorophenyl)-N-(2-oxo-2-phenylethyl)-5-(thiophen-2-yl)-1H-pyrazole-1-carbothioamide] | 36 ± 2.3 | – | 160 | 10 | – | 38.5 | 7 | – | 38.9 | 29.2 ± 2.1 | – | 15 | – | 53.6 | 5 | 23.8 | 8 | 42.1 | 12 | 54.5 | – |
